Series [1] deals with antigenic peptide-pulsed L^kb cells.
Series [2] deals with HSV peptide-pulsed L cells. The note with it: peptide given as inoculated pressure sensitive adhesive tape.
Experimental: At 1 week after the peptide application, cervical lymph node was removed, and lymphocytes were cultured for 2 days in vitro in an RPMI1640 medium containing a slight amount (5 U/ml) of IL-2. The L^kb cells labeled with ^51Cr were pulsed with antigenic peptide (5 µmol) and L^tk- cells were used as a control. Cytotoxicity assay was performed using cultured lymphocytes as effector cells, and ^51Cr-labeled and antigenic peptide-pulsed L^kb cells and L^tk- cells as target cells. […] The antigenic peptides used were the three kinds recited in Reference Example 1.

Here are results for three compounds from patent publication EP0891770B1, “Killer T cell activator and use thereof” (Nitto Denko Corporation, priority 1997, dated 1999).

Read-outs that look alike come from different tables or passages of the source. Where a SMILES comes first, the peptide text is derived from it.

As for `CC(C)C[C@H](NC(=O)CNC(=O)[C@H](CCC(N)=O)NC(=O)[C@H](Cc1ccc(O)cc1)NC(=O)[C@@H](NC(=O)[C@H](Cc1ccc(O)cc1)NC(=O)CNC(=O)[C@@H](N)CCCNC(=N)N)C(C)C)C(=O)O` [VSV NP, Arg Gly Tyr Val Tyr Gln Gly Leu], the “cytotoxic activity of cervical lymphocyte-derived effector cells (antigen specificity)” value (shortened to “cytotoxic activity … (antigen specificity)”) in series [1] is reported as “selectively damaged the cells presenting respective inoculated antigenic peptides”.

`CC[C@H](C)[C@H](NC(=O)[C@H](CO)NC(=O)[C@@H](N)CO)C(=O)N[C@@H](CCC(=O)O)C(=O)N[C@@H](Cc1ccccc1)C(=O)N[C@@H](C)C(=O)N[C@@H](CCCNC(=N)N)C(=O)N[C@@H](CC(C)C)C(=O)O` [HSV gp B, Ser Ser Ile Glu Phe Ala Arg Leu] (H-SSIEFARL-OH): the “cytotoxic activity … (antigen specificity)” value in series [1] was “recognized and certainly eradicated the cells presenting an H-2K^b - HSV gp B peptide complex alone”. For the same compound, the “Cytotoxic activity specific to HSV peptide-pulsed L cells (%)” value in series [2] (time after stripping 12) is recorded as 45.3 ± 1.5%; in series [2] (time after stripping 24), 37.0 ± 1.1%; in series [2] (time after stripping 48), 3.5 ± 0.6%; in series [2] (time after stripping: untreated), 0.2 ± 0.8%.

As to `CC[C@H](C)[C@H](NC(=O)[C@@H](NC(=O)[C@@H](N)CO)[C@@H](C)CC)C(=O)N[C@@H](CC(N)=O)C(=O)N[C@@H](Cc1ccccc1)C(=O)N[C@@H](CCC(=O)O)C(=O)N[C@@H](CCCCN)C(=O)N[C@@H](CC(C)C)C(=O)O` [Ovalbumin, Ser Ile Ile Asn Phe Glu Lys Leu], the “cytotoxic activity … (antigen specificity)” value in series [1] is “selectively damaged the cells presenting respective inoculated antigenic peptides”.
